Assay results taken from patent US20070004653A1, “Stable lyophilized anthracycline glycosides” (priority 2005, published 2007).
Where two headings read alike, the source gives them in different places.

Experiments:
[1] = cited from earlier work
[2] = Stability tests of Idarubicin HCl, 1% w/v aqueous solution, pH varied with NH4OH or HCl or dissolved as is (aglycone, bis-anhydro); assay type: physicochemical; details: for % aglycone / % bis-anhydro: 1% w/v aqueous solution
Method: Starting product was idarubicin hydrochloride, 1% w/v aqueous solution, the analysis of which is shown in the data reported at t=0. 3% mol of NH4OH with respect to idarubicin hydrochloride was added to the solution at t=0 and the solution was incubated at 20° C. for the indicated time. The results in table 1 show the expected rise over time of the bis-anhydro degradation product at high pH (6.69), with very little increase of aglycone.
Starting product was idarubicin hydrochloride, 1% w/v aqueous solution, the analysis of which is shown in the data reported at t=0. 1% mol of NH4OH with respect to idarubicin hydrochloride was added to the solution at t=0 and the solution was incubated at 20° C. for the indicated time.
Starting product was idarubicin hydrochloride, 1% w/v aqueous solution, the analysis of which is shown in the data reported at t=0. 3% mol of NH4OH with respect to idarubicin hydrochloride was added to the solution at t=0 and the solution was incubated at 4° C. for the indicated time.
Starting product was idarubicin hydrochloride, 1% w/v aqueous solution, the analysis of which is shown in the data reported at t=0.1% mol of NH4OH with respect to idarubicin hydrochloride was added to the solution at t=0 and the solution was incubated at 4° C. for the indicated time.
Starting product was idarubicin hydrochloride, 1% w/v aqueous solution, the analysis of which is shown in the data reported at t=0. The solution was incubated for the indicated time at 20° C. without additional chemicals. The results in table 5 show the expected rise in bis-anhydro content.
Starting product was idarubicin hydrochloride, 1% w/v aqueous solution, the analysis of which is shown in the data reported at t=0. The solution was incubated for the indicated time at 4° C. without the addition of additional chemicals.The results in table 6 show a rise in bis-anhydro content, even at 4° C.
Starting product was idarubicin hydrochloride, 1% w/v aqueous solution. At t=0, the pH of the solution was lowered by the addition of 1% mol of HCl with respect to idarubicin hydrochloride. The solution was incubated for the indicated time at 20° C.
Starting product was idarubicin hydrochloride, 1% w/v aqueous solution. At t=0, the pH of the solution was lowered by the addition of 1% mol of HCl with respect to idarubicin hydrochloride. The solution was incubated for the indicated time at 4° C.
Starting product was idarubicin hydrochloride, 1% w/v aqueous solution. At t=0, the pH of the solution was lowered to 3.6 by the addition of 1.3% mol of HCl with respect to idarubicin hydrochloride. The solution was then incubated for the indicated time at 20° C.
Starting product was idarubicin hydrochloride, 1% w/v aqueous solution. At t=0, the pH of the solution was lowered to 3.55 by the addition of 1.5% mol of HCl with respect to idarubicin hydrochloride. The solution was then incubated for the indicated time at 20° C.
Starting product was idarubicin hydrochloride, 1% w/v aqueous solution. At t=0, the pH of the solution was lowered to 3.50 by the addition of 1.7% mol of HCl with respect to idarubicin hydrochloride.
Starting product was idarubicin hydrochloride, 1% w/v aqueous solution. At t=0, the pH of the solution was lowered to 3.03 by the addition of 6.5% mol of HCl with respect to idarubicin hydrochloride.
Starting product was idarubicin hydrochloride, 1% w/v aqueous solution. At t=0, the pH of the solution was lowered to 2.18 by the addition of 48% mol of HCl with respect to idarubicin hydrochloride.

[3] = HCl 1% mol, pH 3.91, 4° C., 169 hr
[4] = HCl 1% mol, pH 3.91, 4° C., 407 hr
[5] = HCl 1% mol, pH 3.91, 20° C., 28 hr
[6] = HCl 1% mol, pH 3.91, 20° C., 168 hr
[7] = HCl 1% mol, pH 3.91, 20° C., 406 hr
[8] = HCl to pH = 2.18 (extra HCl = 48% mol), 4° C., 30 hr
[9] = HCl to pH = 2.18 (extra HCl = 48% mol), 4° C., 119 hr
[10] = HCl to pH = 2.18 (extra HCl = 48% mol), 20° C., 27 hr
[11] = HCl to pH = 2.18 (extra HCl = 48% mol), 20° C., 118 hr
[12] = HCl to pH = 3.03 (extra HCl = 6.5% mol), 20° C., 366 hr
[13] = HCl to pH = 3.50 (extra HCl = 1.7% mol), 20° C., 366 hr
[14] = HCl to pH = 3.55 (extra HCl = 1.5% mol), 20° C., 366 hr
[15] = HCl to pH = 3.60 (extra HCl = 1.3% mol), 20° C., 366 hr
[16] = NH3 1% mol, pH 6.56, 4° C., 34 hr
[17] = NH3 1% mol, pH 6.56, 4° C., 56 hr
[18] = NH3 1% mol, pH 6.56, 4° C., 149 hr
[19] = NH3 1% mol, pH 6.56, 20° C., 29 hr
[20] = NH3 1% mol, pH 6.56, 20° C., 54 hr
[21] = NH3 1% mol, pH 6.56, 20° C., 146 hr
[22] = NH3 3% mol, pH 6.69, 4° C., 28 hr
[23] = NH3 3% mol, pH 6.69, 4° C., 129 hr
[24] = NH3 3% mol, pH 6.69, 20° C., 25 hr
[25] = NH3 3% mol, pH 6.69, 20° C., 122 hr
[26] = dissolved as is, pH 5.66, 4° C., 31 hr
[27] = dissolved as is, pH 5.66, 4° C., 154 hr
[28] = dissolved as is, pH 5.66, 20° C., 26 hr
[29] = dissolved as is, pH 5.66, 20° C., 57 hr
[30] = dissolved as is, pH 5.66, 20° C., 148 hr

CC(=O)[C@]1(O)Cc2c(O)c3c(c(O)c2[C@@H](O[C@H]2C[C@@H](N)[C@H](O)C(C)O2)C1)C(=O)c1ccccc1C3=O.Cl (stereo partly shown) [Idarubicin HCl, Idarubicin hydrochloride]
solubility ([1]; in acetone, chloroform, and methylene chloride): practically insoluble
solubility ([1]; in water, methanol, and other polar solvents like dimethylformamide): soluble
solubility ([1]; in water): not very soluble
% aglycone ([2]; HCl 1% mol, pH 3.91, 4° C., 33 hr): 0.57%
% aglycone [2, 3]: 0.58%
% bis-anhydro [2, 3]: 0.06%
% aglycone [2, 4]: 0.58%
% bis-anhydro [2, 4]: 0.05%
% aglycone ([2]; HCl 1% mol, pH 3.91, 4° C., t = 0): 0.59%
% aglycone [2, 5]: 0.57%
% bis-anhydro [2, 5]: 0.04%
% aglycone [2, 6]: 0.58%
% bis-anhydro [2, 6]: 0.09%
% aglycone [2, 7]: 0.59%
% bis-anhydro [2, 7]: 0.25%
% aglycone ([2]; HCl 1% mol, pH 3.91, 20° C., t = 0): 0.59%
% aglycone [2, 8]: 0.61%
% bis-anhydro [2, 8]: 0.06%
% aglycone [2, 9]: 0.63%
% bis-anhydro [2, 9]: 0.06%
% aglycone ([2]; HCl to pH = 2.18 (extra HCl = 48% mol), 4° C., t = 0): 0.59%
% aglycone [2, 10]: 0.72%
% bis-anhydro [2, 10]: 0.06%
% aglycone [2, 11]: 1.03%
% bis-anhydro [2, 11]: 0.06%
% aglycone ([2]; HCl to pH = 2.18 (extra HCl = 48% mol), 20° C., t = 0): 0.59%
% aglycone ([2]; HCl to pH = 3.03 (extra HCl = 6.5% mol), 4° C., 29 hr): 0.61%
% aglycone ([2]; HCl to pH = 3.03 (extra HCl = 6.5% mol), 4° C., 80 hr): 0.61%
% aglycone ([2]; HCl to pH = 3.03 (extra HCl = 6.5% mol), 4° C., 364 hr): 0.61%
% aglycone ([2]; HCl to pH = 3.03 (extra HCl = 6.5% mol), 4° C., t = 0): 0.59%
% aglycone ([2]; HCl to pH = 3.03 (extra HCl = 6.5% mol), 20° C., 22 hr): 0.62%
% aglycone ([2]; HCl to pH = 3.03 (extra HCl = 6.5% mol), 20° C., 76 hr): 0.63%
% aglycone ([2]; HCl to pH = 3.03 (extra HCl = 6.5% mol), 20° C., 124 hr): 0.65%
% aglycone [2, 12]: 0.77%
% bis-anhydro [2, 12]: 0.04%
% aglycone ([2]; HCl to pH = 3.03 (extra HCl = 6.5% mol), 20° C., t = 0): 0.59%
% aglycone ([2]; HCl to pH = 3.50 (extra HCl = 1.7% mol), 20° C., 22 hr): 0.59%
% aglycone ([2]; HCl to pH = 3.50 (extra HCl = 1.7% mol), 20° C., 76 hr): 0.59%
% aglycone ([2]; HCl to pH = 3.50 (extra HCl = 1.7% mol), 20° C., 124 hr): 0.60%
% aglycone [2, 13]: 0.61%
% bis-anhydro [2, 13]: 0.01%
% aglycone ([2]; HCl to pH = 3.50 (extra HCl = 1.7% mol), 20° C., t = 0): 0.59%
% aglycone ([2]; HCl to pH = 3.55 (extra HCl = 1.5% mol), 20° C., 22 hr): 0.59%
% aglycone ([2]; HCl to pH = 3.55 (extra HCl = 1.5% mol), 20° C., 76 hr): 0.59%
% aglycone ([2]; HCl to pH = 3.55 (extra HCl = 1.5% mol), 20° C., 124 hr): 0.60%
% aglycone [2, 14]: 0.61%
% bis-anhydro [2, 14]: 0.01%
% aglycone ([2]; HCl to pH = 3.55 (extra HCl = 1.5% mol), 20° C., t = 0): 0.59%
% aglycone ([2]; HCl to pH = 3.60 (extra HCl = 1.3% mol), 20° C., 22 hr): 0.59%
% aglycone ([2]; HCl to pH = 3.60 (extra HCl = 1.3% mol), 20° C., 76 hr): 0.59%
% aglycone ([2]; HCl to pH = 3.60 (extra HCl = 1.3% mol), 20° C., 124 hr): 0.60%
% aglycone [2, 15]: 0.61%
% bis-anhydro [2, 15]: 0.01%
% aglycone ([2]; HCl to pH = 3.60 (extra HCl = 1.3% mol), 20° C., t = 0): 0.59%
% aglycone [2, 16]: 0.58%
% bis-anhydro [2, 16]: 0.50%
% aglycone [2, 17]: 0.58%
% bis-anhydro [2, 17]: 0.74%
% aglycone [2, 18]: 0.58%
% bis-anhydro [2, 18]: 1.33%
% aglycone ([2]; NH3 1% mol, pH 6.56, 4° C., t = 0): 0.59%
% aglycone [2, 19]: 0.58%
% bis-anhydro [2, 19]: 2.37%
% aglycone [2, 20]: 0.58%
% bis-anhydro [2, 20]: 3.56%
% aglycone [2, 21]: 0.59%
% bis-anhydro [2, 21]: 8.03%
% aglycone ([2]; NH3 1% mol, pH 6.56, 20° C., t = 0): 0.59%
% aglycone [2, 22]: 0.59%
% bis-anhydro [2, 22]: 0.63%
% aglycone [2, 23]: 0.59%
% bis-anhydro [2, 23]: 1.87%
% aglycone ([2]; NH3 3% mol, pH 6.69, 4° C., t = 0): 0.59%
% aglycone [2, 24]: 0.60%
% bis-anhydro [2, 24]: 3.00%
% aglycone [2, 25]: 0.61%
% bis-anhydro [2, 25]: 13.46%
% aglycone ([2]; NH3 3% mol, pH 6.69, 20° C., t = 0): 0.59%
% aglycone [2, 26]: 0.57%
% bis-anhydro [2, 26]: 0.11%
% aglycone [2, 27]: 0.57%
% bis-anhydro [2, 27]: 0.30%
% aglycone ([2]; dissolved as is, pH 5.66, 4° C., t = 0): 0.59%
% aglycone [2, 28]: 0.57%
% bis-anhydro [2, 28]: 0.41%
% aglycone [2, 29]: 0.58%
% bis-anhydro [2, 29]: 0.84%
% aglycone [2, 30]: 0.58%
% bis-anhydro [2, 30]: 1.20%
% aglycone ([2]; dissolved as is, pH 5.66, 20° C., t = 0): 0.59%
pH at which found to be most stable ([2]; lowest amount of aglycon and bis-anhydro impurities, constant over time even at 20° C.): 3.5
